Results published in patent publication US20230346931A1, “ALTERNATIVE SURFACTANTS AS STABILIZERS FOR THERAPEUTIC PROTEIN FORMULATIONS” (Hoffmann-La Roche Inc., priority 2020, published 2023).
Each block holds one compound with its values, some of them ahead of it.

How the values were obtained:
Format in all cases: physicochemical
[1] = system: model mAb; experiment: Thermal conformational protein stability in presence of surfactants (nanoDSF); conditions: for effect on mAbs' conformational stability: elevated surfactant concentrations; for change of Tm1: surfactant 10 mg/mL; for change in thermal conformational stability properties: already at lower concentrations of 0.1 & mg/mL
Description: Conformational protein stability was investigated with the Prometheus NT.Plex (NanoTemper Technologies GmbH, München, Germany). The device allows the label-free fluorimetric analysis of the change in intrinsic protein fluorescence from aromatic tryptophan and tyrosine residues by using small quantities of solution. Thermal induced protein unfolding was monitored by detecting the emission shift at 330 nm and 350 nm at a laser power of 5%. The nanoDSF grade standard capillary chips (NanoTemper Technologies, München, Germany) were filled with 10 μL of freshly prepared (t0) formulation containing 25 mg/mL mAb compounded with either 0.01, 0.1, 1 or 10 mg/mL of the specific surfactant. Sodium dodecyl sulfate (SDS) was taken as positive control since the charge as been reported to lead to destabilization of proteins presumably by chare-charge interactions. Samples were heated from 25 to 95° C. with a constant heating ramp of 0.5° C. per minute. The PR.StabilityAnalysis software (NanoTemper Technologies, München, Germany) automatically calculated the onset (Ton) and first transition point (Tm1) temperature of the melting curve. Data reported are the mean value of three individual measurements.
Stability indicating parameters being the onset temperature (Ton) of unfolding and the first melting transition (Tm1) were measured for the model mAb in presence of surfactants at concentrations ranging from 0.01 mg/mL to 10 mg/mL (see FIG. 4).

[2] = system: mAb 1; experiment: Protein stability in presence of surfactants after mechanical stresses (shaking, freeze-thaw) and thermal stress, mAb 1; conditions: for particle formation upon shaking: 200 rpm, 7 days, 5° C. and 25° C.; for SVP ≥10 μm per container after shaking: criteria of maximum 6,000 particles≥10 μm per container
Description: (§1) Surfactant performance screens were carried out with 0.1 and 1 mg/mL of the surfactant in the formulation of the model mAb described within the Materials section. After compounding the liquid samples were sterile filtered through 0.22 μm Millex Sterivex™ GV (Millipore, Bedford, USA) filter units, filled into 6 mL type 1 glass vials and closed with Ø 20 mm teflon® coated serum stoppers (DAIKYO Seiko Ltd., Tokyo, Japan). The stoppered vials were crimped using an aluminum cap (Infochroma AG, Goldau, Switzerland). The corresponding placebo formulations were equally prepared, formulated and used as respective controls.
To evaluate the effects of the surfactants on the mAb's stability the formulations were exposed to various interfacial stress conditions like agitation and various freeze-thaw cycles. Shaking stress was carried by placing the vials horizontally for seven days at 5° C. and 25° C. protected from light within a shaker (HS 260 Control Model; IKA Werke GmbH & Co. KG; Staufen, Germany) at constant 200 rounds per minute (rpm). Freeze-thaw (F/T) stress was performed by exposing the vials to five consecutive cycles of freezing at −20° C. and thawing at 5° C.
(§2) Thermal stability data was generated by storing the liquid protein formulations for up to 24 months (mo) at 5° C., for 6 months at 25° C./60% relative humidity (rH) and 12 weeks at 40° C./75% rH. Samples were analyzed at initial time point (t0) and after 1 mo, 3 mo, 6 mo, 12 mo, 18 mo and 24 months of storage using the subsequently described analytical methods
Enhanced visual inspection was performed as previously described using a Seidenader V 90-T machine (Seidenader Maschinenbau GmbH, Markt Schwaben, Germany)[58]. The number of particles were categorized into four classes: class (I) is equivalent to 0 particles, class (II) is equivalent to 1-5 particles, class (III) is equivalent to 6-10 particles and class (IV) is equivalent to >10 particles.
Turbidity was determined as previously described in literature and according to Ph. Eur. 2.2.1 using a 2100AN turbidimeter (Hach Lange GmbH, Dusseldorf, Germany) calibrated with a StablCal® calibration kit (Hach Lange GmbH). Results were given as Nephelometic Turbidity Units (NTU).
The color of the solutions was assessed by means of a LICO 690 Colorimeter (Hach Lange GmbH). Classification was performed according to the color scale described in Ph. Eur. 2.2.2.. Data presented herein show the degree of color change according to color scale values of Ph.Eur. 2.2.2: class (I) is equivalent to color scale values of 9, 8, 7, or colorless; class (II) is equivalent to color scale values of 6 or 5; class (III) is equivalent to color scale values of 4 or 3; and class (IV) is equivalent to color scale values of 2 or 1.
Sub-visible particle (SVP) count was measured by means of light obscuration using a HIAC 9703+ liquid particle counting system (Skan AG, Allschwil, Switzerland) and PharmSpec 3 (Hach Lange GmbH) software. The applied measurement technique was adapted from the method described in Ph.Eur. 2.9.19 [61] and USP <787>[62]. After rinsing the system with sample solution, four runs with a sample volume of 0.2 mL were performed. The final cumulative particle count was obtained by calculating the mean ±SD (standard deviation) from the last three measurements. SVP bigger than or equal to 2, 5, 10 and 25 μm were measured and presented as cumulative counts per mL of solution.
Detection of soluble mAb aggregates, in the following referred to as high molecular weight species (HMWS), the monomer and the low molecular weight species (LMWs) were analyzed by SE-HPLC. The utilized system comprised an Alliance 2695 HPLC instrument equipped with a 2487 UV detector (both from Waters Corporation, Milford, MA). The autosampler temperature was set to 5° C. and the system was loaded with total 100 μg of the mAb. […]

[3] = system: mAb 1; experiment: Long-term protein stability (storage at 5° C. and 25° C.), mAb 1; conditions: higher concentrations
Description: as §1
as §2, with “methods […]” for “methods”
Turbidity was determined as previously described in literature and according to Ph. […]
The color of the solutions was assessed by means of a LICO 690 Colorimeter (Hach Lange GmbH). […]
Sub-visible particle (SVP) count was measured by means of light obscuration using a HIAC 9703+ liquid particle counting system (Skan AG, Allschwil, Switzerland) and PharmSpec 3 (Hach Lange GmbH) software. […]

[4] = Surface tension measurement (dynamic surface tension, DST); conditions: mAb formulation at t0
Description: Surface tension measurements were performed by means of liquid handling stations according to a method described by Amrhein et al.[63]. Briefly, the measurement depends on the correlation between drop mass and the surface tension of the sample. For this study a fully automated liquid handling station Freedom 384 EVO 200 (Tecan, Crailsheim, Germany) was equipped with an analytical balance (Mettler Toledo, Columbus, USA). The system contains stainless fixed tips which aspirate the sample with 100 μL·s^−1 from a sealed 1 mL round bottom LoBind® Deepwell Plate (Eppendorf, Hamburg, Germany). The sample was dispensed with 3 μL·s^−1 to a second round bottom Deepwell Plate 96/500 μL (Eppendorf, Hamburg, Germany) mounted on an analytical balance. The weight was recorded continuously using fully automated routines written in Matlab R2017b (MathWorks, Natick, MA, USA). The surface tension of water (72.6 mN/m) was used as a reference for calculations. The mean of three individual measurements of the samples (at t0) is reported as surface tension.

- effect on mAbs' conformational stability [1]: destabilizing effect
- change of Tm1 [1]: comparable destabilizing effect
- change of Ton ([1]; surfactant 1 and 10 mg/mL): comparable destabilizing effect
Compound: CCCCCCCCCC(=O)N(CCO)C[C@H](O)[C@@H](O)[C@H](O)[C@H](O)CO [HEGA-10, decanoyl-N-hydroxyethylglucamide]

- effect on mAbs' conformational stability [1]: destabilizing effect
- change of Tm1 [1]: comparable destabilizing effect
- change of Ton ([1]; surfactant 1 and 10 mg/mL): comparable destabilizing effect
Compound: CCCCCCCCC(=O)N(C)C[C@H](O)[C@@H](O)[C@H](O)[C@H](O)CO [MEGA-9, nonanoyl-N-methylglucamide]

Compound: sodium deoxy cholate [NaDC]
- change in thermal conformational stability properties [1]: strong decrease in thermal conformational stability properties

Compound: CCCCCCCCCCCCOS(=O)(=O)[O-].[Na+] [SDS, Sodium dodecyl sulfate, reference compound]
- effect on Ton and Tm1 compared to reference formulation without surfactant ([1]; surfactant 0.01 to 10 mg/mL): concentration dependent destabilizing effect

- visible particles initially ([2]; 1 mg/mL surfactant): many particles initially
- SVP ≥10 μm per container after shaking [2]: exceeded USP <787> criteria
- solubility in formulation [3]: solubility issues
- effect on mAbs' conformational stability [1]: destabilizing effect
- change of Tm1 [1]: slight decrease
- change of Ton ([1]; surfactant 1 and 10 mg/mL): slight decrease in Ton
Compound: C[C@H](CCC(=O)N(CCCNC(=O)[C@H](O)[C@@H](O)[C@H](O)[C@H](O)CO)CCCNC(=O)[C@H](O)[C@@H](O)[C@H](O)[C@H](O)CO)[C@H]1CC[C@H]2[C@@H]3CC[C@@H]4C[C@H](O)CC[C@]4(C)[C@H]3C[C@H](O)[C@]12C [DBC, Deoxy-BigCHAP]
- particle formation upon shaking [2]: particle formation particularly after agitation

- dynamic surface tension [4]: around 73 mN/m
- color after shaking stress [2]: strong change in color
- SVP ≥10 μm per container after shaking [2]: exceeded USP <787> criteria
- effect on mAbs' conformational stability [1]: no impact
- change of Ton ([1]; surfactant 1 mg/mL or higher): slight increase of Ton
Compound: Chobimalt
- stabilizing effect upon F/T studies ([2]; 5 freeze-thaw cycles): missing stabilizing effect at the interface
- particle formation upon shaking [2]: strongest particle formation upon shaking

Compound: C[C@H](CCC(=O)NCC(=O)[O-])[C@H]1CC[C@H]2[C@@H]3[C@H](O)C[C@@H]4C[C@H](O)CC[C@]4(C)[C@H]3C[C@H](O)[C@]12C.O.[Na+] [NaGC, sodium glycocholate hydrate]
- change in thermal conformational stability properties [1]: strong decrease in thermal conformational stability properties
